The values below are quoted from earlier work in patent US20100016430A1, “MODIFIED COCONUT OILS WITH BROAD ANTIMICROBIAL SPECTRUM” (MALAYSIAN AGRICULTERAL RESEARCH AND DEVELOPMENT IN, priority 2005, published 2010).

In one data set the test system is C. trachomatis. The settings on record: for Effect on C. trachomatis: 10 mM concentration.
The test system of the next data set is H. pylori. The settings on record: 10 mM for 30 min at 37° C.
In a further data set the test system is Pseudomonas spp. The settings on record: 250 and 500 ppm in naturally contaminated cottage cheese.
In a further data set the test system is coliform. The note with it: 250 and 500 ppm in naturally contaminated cottage cheese.
The next data set concerns C. albicans. The settings on record: Bergsson et al. 2001.

On to `CCCCCCCCCCCC(=O)OCC(O)CO` (stereo not drawn) [monolaurin], for which the “Effect on C. trachomatis” value in the data set on C. trachomatis is “negligible effect”. In addition, the “Activity against H. pylori” value in the data set with H. pylori is recorded as “most active”. Besides, in the data set with Pseudomonas spp, the “Inhibition of Pseudomonas spp” value was “more than 90%”. Besides, the Inhibition of coliform entry with coliform is recorded as “more than 90%”. With `CCCCCCCCCC(=O)OCC(O)CO` (stereo not drawn) [monocaprin], the “Activity against H. pylori” value in the data set on H. pylori is listed as “most active”. As to `CCCCCCCCCCCC(=O)O` [lauric acid], the “Inactivation of C. trachomatis” value in the data set with C. trachomatis (5 mM for 5 min) is “greater than 100,000 fold”. The “Killing of C. albicans / antimicrobial effect” value in the data set on C. albicans is “fastest and most effective killing”. As for `CCCCCCCCCCCCCC(=O)O` [myristic acid], the “Killing of C. albicans / antimicrobial effect” value in the data set with C. albicans is given as “do not shown antimicrobial effect”.

For the molecule `CCCCCCCC(=O)OCC(O)CO` (stereo not drawn) [monocaprylin], the “Effect on C. trachomatis” value in the data set on C. trachomatis was “negligible effect”.

Turning to `CCCCCCCCCC(=O)O` [capric acid], the “Killing of C. albicans / antimicrobial effect” value with C. albicans was “fastest and most effective killing”. As to `CCCCCC/C=C\CCCCCCCC(=O)O` [palmitoleic acid], the “Killing of C. albicans / antimicrobial effect” value in the data set on C. albicans is “do not shown antimicrobial effect”. For the molecule `CCCCCCCC/C=C\CCCCCCCC(=O)O` [oleic acid], the “Killing of C. albicans / antimicrobial effect” value with C. albicans is “do not shown antimicrobial effect”.
